# Patent US12527830B2, “Method for treating and preventing ulcerative colitis and method for DAI reduction” (BEIJING WEHAND-BIO PHARMACEUTICAL CO., LTD, priority 2022, dated 2026)
# System: UC model mice
# Assay: 3% DSS-induced ulcerative colitis model in mice: colon length, body weight, Disease Activity Index (DAI)
# Format: in vivo
# Details: positive drug group, 500 mg/kg/d by gavage, 3% DSS mice
# Experimental: Mice aged 6-8 weeks were adaptively kept in an animal house for 3 days. After weighing, they were randomly divided into 8 groups (counted as Day 0), with 5-6 mice in each group. Experimental grouping was as follows: group 1, normal control; group 2, model; group 3, positive control; and groups 4-8, SZ-A with different administration doses, respectively. 3% DSS was formulated as follows: 3 g of DSS (Dextran Sulfate Sodium Salt) was dissolved in 100 mL of sterile water; The mulberry twig extract as prepared in Preparative Example 1 was formulated at different concentrations and dissolved in 1% CMC solution; Drug as positive control: Sulfasalazine Enteric-Coated Tablets (NMPN H31020557). On the day when grouping was done, the mice in group 8, SZ-A-5 (pretreatment) group, were administered with a mulberry twig extract by oral gavage (see the following table for dosages) once a day. All groups are normally available to food and water. […] After 5 days from the start of modelling, the access to 3% DSS was stopped, and all groups had normal drinking water instead, with the administration done normally. The mice were administered continuously and observed for 10 days, and euthanized by cervical dislocation. The colons of the mice were removed by dissection, and the lengths of the colons were measured and photographed. During the administration, the weights of the mice in each group were measured. During the modelling and administration, stool texture and blood in stool of the mice were monitored daily, and Disease Activity Index, DAI, for the mice was scored according to Table 2 below. [table] [table] • Note: DAI=Score for Weight Loss+Score for Stool Texture+Score for Fecal Occult Blood; Normal Stool: Shaped Stool; Mushy Stool: Pasty, Semi-Shaped Stool without Adhering to Anus; Liquid Stool: Thin, Watery Stool that may Adhere to Anus. Disease Activity Index (DAI) scores for mice were compared using the mulberry twig extracts in each preparative example with reference to the experimental steps in sections 1.1-1.3 above. […]
smiles,measurement,setting,value
"O=C(O)c1cc(N=Nc2ccc(S(=O)(=O)Nc3ccccn3)cc2)ccc1O [positive drug, 5-[p-(2-pyridylsulfamoyl)phenylazo]salicylic acid]",inhibition of colonic atrophy (colon length) compared with model group,FIG. 1-2,significantly inhibited colonic atrophy
same,inhibition of weight loss compared with model group,FIG. 3,inhibit weight loss
same,"reduction of Disease Activity Index, DAI, compared with model group",FIG. 4,reduce Disease Activity Index
